For 19 molecules, Ki results are on record in ChEMBL document CHEMBL1140513, “Heteroatom-linked indanylpyrazines are corticotropin releasing factor type-1 receptor antagonists” (Bioorg Med Chem Lett, 2007).

The assay deals with T1, Corticotropin-releasing factor receptor 1 (Homo sapiens, UniProt P34998).
T1 sequence (P34998 whole entry): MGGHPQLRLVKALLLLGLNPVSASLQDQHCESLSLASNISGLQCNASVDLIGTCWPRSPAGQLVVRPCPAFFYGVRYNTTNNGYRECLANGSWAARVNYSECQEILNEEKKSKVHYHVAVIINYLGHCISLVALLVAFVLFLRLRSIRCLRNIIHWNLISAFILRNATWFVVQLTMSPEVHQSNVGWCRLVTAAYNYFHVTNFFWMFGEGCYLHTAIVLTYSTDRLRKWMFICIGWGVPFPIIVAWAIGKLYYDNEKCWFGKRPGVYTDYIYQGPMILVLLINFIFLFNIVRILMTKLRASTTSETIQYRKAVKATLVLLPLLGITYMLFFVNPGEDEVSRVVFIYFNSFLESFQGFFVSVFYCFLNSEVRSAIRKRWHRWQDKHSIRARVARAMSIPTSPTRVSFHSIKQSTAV
The experiment in a line: Displacement of [125I]Tyr-o-CRF from CRF1 receptor in IMR32 cells. In kind it is cell-based, IMR-32.
Regarding `CCO[C@@H]1Cc2ccccc2[C@@H]1Nc1nc(CC)c(Oc2cc(C)ccn2)nc1CC`, the Ki was over 10000 nM.
In the case of `CCOCC(Nc1nc(CC)c(Oc2cc(C)ccn2)nc1CC)c1ccccc1` (centres undefined) it was 384 nM.
In the case of `CCCN(CCC)c1nc(CC)c(Oc2cc(C)ccn2)nc1CC` it was 711 nM; in that of `CCO[C@H]1Cc2ccccc2[C@H]1Nc1nc(CC)c(Oc2cccc(C)n2)nc1CC`, 472 nM; in that of `CCO[C@H]1Cc2ccccc2[C@H]1Nc1nc(CC)c(Oc2cc(C)ccn2)nc1CC`, 35 nM.
The same measure for `CCc1nc(Oc2cc(C)ccn2)c(CC)nc1N[C@@H]1c2ccccc2C[C@@H]1OC(C)=O`: 2020 nM; for `CCc1nc(NC(CC)CC)c(CC)nc1Nc1ccc([N+](=O)[O-])cn1`: over 10000 nM.
In the case of `CCCO[C@H]1Cc2ccccc2[C@H]1Nc1nc(CC)c(Oc2cc(C)ccn2)nc1CC`, the affinity corresponds to a Ki of 30 nM.
The same measure for `CCc1nc(N[C@@H]2c3ccccc3C[C@@H]2OCCF)c(CC)nc1Nc1ncc(Cl)cc1Cl`: 1730 nM; for `CCc1nc(NC(CC)CC)c(CC)nc1Nc1ccccn1`: over 10000 nM; for `CCO[C@H]1Cc2ccccc2[C@@H]1Nc1nc(CC)c(Oc2cc(C)ccn2)nc1CC`: 5470 nM.
Molecule `CCO[C@H]1Cc2ccccc2[C@H]1Nc1nc(CC)c(Oc2ncccc2C)nc1CC` showed a Ki of 509 nM.
The same measure for `CCc1nc(NC(CC)CC)c(CC)nc1Nc1ccc(Cl)cc1Cl`: over 10000 nM; for `CCc1nc(NC(CC)c2ccccc2)c(CC)nc1Nc1ncc(Cl)cc1Cl` (centres undefined): over 10000 nM; for `CCc1nc(Oc2cc(C)ccn2)c(CC)nc1NC(CC)CC`: over 10000 nM.
Consider `CCc1nc(NC(CC)CC)c(CC)nc1Nc1ncc(Cl)cc1Cl`, for which affinity was put at a Ki of 115 nM.
In the case of `CCc1nc(Oc2cc(C)ccn2)c(CC)nc1N[C@H]1c2ccccc2C[C@H]1O` it was over 10000 nM; in that of `CCO[C@@H]1Cc2ccccc2[C@H]1Nc1nc(CC)c(Oc2cc(C)ccn2)nc1CC`, over 10000 nM; in that of `CCc1nc(NC(CC)CC)c(CC)nc1Nc1cccc(C)n1`, 3380 nM.

Broadly, the Ki is the dissociation constant of the complex between target and ligand, obtained from inhibition or displacement. A higher Ki goes with a looser hold on the target.
